Data: patent publication US20250215016A1, “ISOXAZOLE-HETEROCYCLIC DERIVATIVE, PHARMACEUTICAL COMPOSITION AND USE” (SHANGHAI SIMR BIOTECHNOLOGY CO., LTD, priority 2022, published 2025)

Key:
[1] = biological target: human α2β3γ2 receptor (α2-GABAA receptor) (Homo sapiens (Human), UniProt P18507+P47869); experiment: Radioligand (3H-flunitrazepam) competition binding assay, BZD site; α2 vs α5 binding selectivity; conditions: ratio of Ki at α2β3γ2 to Ki at α5β3γ2
From the text: (§1) α, β and γ subunits are essential for the formation of a complete functional GABAA receptor. In this example, HEK293 cell strains stably expressing human α5-GABAA receptor (comprising α5β3γ2 subunit) and α2-GABAA receptor (comprising α2β3γ2 subunit) were constructed and screened, respectively, by liposome transfection method (Felgner, P. L., et al., Proceedings of the National Academy of Sciences, 1987, 84:7413-7417). The specific subunit protein sequences are as follows: α5 subunit (protein sequence can be found in GenBank accession number: NM_000810.3); α2 subunit (protein sequence can be found in GenBank accession number: NM_000807.4); β3 subunit (protein sequence can be found in GenBank accession number: NM_000814.5); γ2 subunit (protein sequence can be found in GenBank accession number: NM_000816.3).
(§2) The above cell lines were subcultured. Amplification of α5β3γ2-HEK293 and α2β3γ2-HEK293 cells was used to test the affinity of the compounds to benzodiazepine site (BZD) of the GABAA receptor. During the passage of α5β3γ2-HEK293 cells, some of the suspended cells were spread on a glass slide pretreated with Poly-D-Lysine for electrophysiological testing.
(§3) Flunitrazepam is a non-specific reagent that binds to the BZD site efficiently. The affinity of the compounds to the BZD sites of the human α5β3γ2 and α2β3γ2 receptors can be determined by competing the compound with ^3H-flunitrazepam (isotope ^3H-labeled flunitrazepam) for binding to these two receptors.
(§4) Membrane preparation: HEK293 cells stably expressing human α5β3γ2 receptor or α2β3γ2 receptor were collected, suspended in 50 mM Tris-HCl buffer (pH=7.4), homogenized on ice by a homogenizer for 20 seconds 10 times, and centrifuged at 4° C., 1000 g for 10 min. The supernatant was collected, and the above steps were repeated. The supernatant was centrifuged (33800 g; centrifuge purchased from Thermo, rotor model: A27-8×50) at 4° C. for 60 min, and the precipitate was resuspended in Tris buffer (50 mM Tris-HCl, 10 mM MgCl2, 0.5 mM EDTA, 10% glycerol). The precipitate was the cell membrane. Protein content was determined by BCA (Bicinchoninic Acid) method (BCA kit from Pierce (Annoron)). The cell membrane was prepared into 1 ml aliquot and stored at −80° C.
(§5) Radioligand competition binding assay: the assay was carried out in a 200 μL system (96-well plate from Agilent) with 100 μL of cell membrane. The concentration of ^3H-flunitazepam (from PerkinElmer, lot: NET567250 UC) was 1 nM and the concentration of test compound was in the range 1×10^−5-10^−6 M. Flumazenil (from Tocris; lot: 1318) was used as a control. 1 μL of 2 mM flumazenil (final concentration 10 μM) was added to the Low signal control well (Low control, LC) and 1 μL of DMSO (from Sigma aldrich, lot: 472301) was added to the High signal control well (High control, HC). The final target membrane protein concentration was 5 μg/well. All test compound sample stocks were 10 mM DMSO solutions. The working concentration of the samples is to dilute all samples with DMSO to 0.2 mM, and then perform 4-fold continuous gradient dilution for a total of 8 concentration gradients. The 96-well plate was sealed with a plate sealing membrane and then incubated on a shaker at room temperature for 1 hour. Meanwhile, GF/C filter plate was soaked with a plate soaking buffer (0.3% PEI, polyethyleneimine, purchased from Sigma aldrich, model: P314, stored at 4° C.) for at least 0.5 hours. After completion of binding incubation, the cells were collected with a cell collector onto the GF/C filter plate and washed four times with a plate washing buffer (50 mM Tris-HCl, pH 7.4, stored at 4° C.). […]

[2] = Stability in simulated gastric fluid (SGF); type: physicochemical; conditions: 37° C., 1000 rpm
Experimental: Simulated gastric fluid (SGF), Manufacturer: Dongguan Chuangfeng Automation Technology Co., Ltd.; Product model: CF-006.
Oscillating constant temperature metal bath, Model: Thermo; Manufacturer: Digital Skaking Drybath.
Temperature: 37° C.; rotating speed: 1000 rpm; sampling time: 0, 4 hours.
Chromatographic column: Welch Xtimate C18 3.0×100 mm, 5 μm. Mobile phase: A: 0.04% trifluoroacetic acid (TFA)/H2O (v/v), B: acetonitrile (ACN). Gradient elution was performed according to the following table, flow rate: 1.0 mL/min; injection volume: 5 μL; column temperature: 35° C.; wavelength: 254 nm.
• (a) preparation of 0.04% TFA/H2O: 400 μL of TFA was measured, placed into 1 L of H2O, and homogenously mixed; • (b) Sample stock solution: about 3 mg of test sample was weighed, and prepared into a stock solution of 10 mmol/L using DMSO; • (c) 50 μL of the sample stock solution was taken, placed into a 5 mL volumetric flask, made up to the scale with the addition of SGF, and homogenously mixed. 400 μL of the solution was taken, four samples in parallel, and shaken at 1000 rpm and 37° C.; • (d) every two samples were taken after 0 and 4 hours respectively, 400 μL of acetonitrile was added, and homogenously mixed, followed by liquid phase injection, and calculation of the change % of the main peak area in the solution after 4 hours relative to 0 hour, two average value reports being taken at each time point.

[3] = biological target: human α5β3γ2 receptor (α5-GABAA receptor) (Homo sapiens (Human), UniProt P18507+P31644); experiment: Radioligand (3H-flunitrazepam) competition binding assay, BZD site; conditions: 3H-flunitrazepam 1 nM; HEK293 membranes expressing human α5β3γ2
From the text: as §1, §2, §3, §4, §5

α5-GABAA receptor = α5-GABAA receptor (Homo sapiens (Human), UniProt P18507+P31644); experiment: Whole-cell patch clamp electrophysiology, inverse regulation activity in α5β3γ2-HEK293 cells; type: cell-based; conditions: compound 100 nM; GABA 0.05-0.06 μM (about EC7-8); clamped at −60 mV; read-out: Inverse regulation efficiency to α5-GABAA receptor
From the text: α, β and γ subunits are essential for the formation of a complete functional GABAA receptor. […] The specific subunit protein sequences are as follows: α5 subunit (protein sequence can be found in GenBank accession number: NM_000810.3); α2 subunit (protein sequence can be found in GenBank accession number: NM_000807.4); β3 subunit (protein sequence can be found in GenBank accession number: NM_000814.5); γ2 subunit (protein sequence can be found in GenBank accession number: NM_000816.3).
as §2
The inverse regulation activity of the test drugs on α5-GABAA receptor was detected by an electrophysiological method. The specific method was as follows:
Compound concentration setting: the final concentration of the compounds used for compound screening was 100 nM. GABA concentration was 0.05-0.06 μM (about EC7-8). […] The extracellular fluid (ECS) ingredients for electrophysiology were as follows: 150 mM NaCl, 5 mM KCl, 2.5 mM CaCl2, 1 mM MgCl2, 10 mM HEPES and 10 mM glucose (pH 7.4); the electrode internal solution (ICS) formula for electrophysiology was as follows: 140 mM CsCl, 11 mM EGTA, 10 mM HEPES, 2 mM CaCl2, 1 mM MgCl2, 4 mM MgATP, 2 mM TEA (pH 7.3). The above reagents were all purchased from Sigma aldrich. GABA (γ-aminobutyric acid, from sigma aldrich, lot: A5385) powder was prepared into a stock solution with pure water and then diluted in ECS. The compound was first prepared into a 4 mM stock solution with DMSO, and then gradually diluted in corresponding concentrations of GABA-ECS. The solutions were all prepared fresh prior to electrophysiological testing.
Electrophysiological signal acquisition were performed by using EPC 10 amplifier and PatchMaster software (HEKA) or Axon 700 B amplifier and Clampex software (AXON). The recording electrode was made by drawing borosilicate glass (purchased from sutter), and has an electrode resistance of 4˜6 MΩ. Extracellular administration was carried out using ALA-VC-8PG (purchased from ALA, USA) system. A single independently grown cell was selected, and lysis was performed after the glass electrode and the cell forming a good seal, to form a whole cell mode. With the cellular membrane potential clamped at −60 mV, recording was carried out in the Gap-free mode. For the test, extracellular fluid was first applied extracellularly for about 20 seconds. After baseline (Iprebaseline) was stabilized, the extracellular fluid was switched to GABA-ECS. At this time, the current (Igaba) caused by GABA can be detected. At about 20-40 seconds, after the current stabilized, the extracellular fluid was switched to a mixed solution of the compound and GABA-ECS, until the current (Itreatment) caused by both the compound and GABA can be detected. Finally, the solution was switched to the extracellular fluid and the test was terminated after recording for 20-40 seconds.
The experimental results were analyzed using PatchMaster v2x90.1 or PatchMaster v2x90.3 software (EPC 10 amplifier) and Clampex10.6 software (Axon700B amplifier). The current value of each stage was calculated according to the average value of the stabilized current under the corresponding conditions. We defined the control current as Igaba−Iprebaseline, and the current after compound treatment as Itreatment−Iprebaseline. The inverse regulation activity of the compounds is expressed as a percentage and is calculated according to the following formula: Inverse regulation efficiency=[(Itreatment−Igaba)/(Igaba−Iprebaseline)]×100%.

| SMILES | Selectivity α2 ki/α5 ki [1] [folds] | Residual content in simulated gastric juice after 4 hours (compared with 0 hour content) [2] | Ki [3] [nM] | inhibition at 0.1 µM (α5-GABAA receptor) [%] |
| --- | --- | --- | --- | --- |
| Cc1onc(-c2ccc(F)cc2)c1COc1ccc(-c2nnc3n2CCCOC3)nn1 [Compound 21, 3-(6-((3-(4-fluorophenyl)-5-methylisoxazol-4-yl)methoxy)pyridazin-3-yl)-6,7-dihydro-5H,9H-[1,2,4]triazolo[3,4-c][1,4]oxazepane] | 51 | – | 0.91 | 46 |
| Cc1onc(-c2ccc(F)cc2)c1COc1cnc(-c2cnn3c2CCC3)cn1 [Compound 3] | – | 102% (4 hours) | 1.66 | 24 |
| Cc1onc(-c2ccc(F)cc2)c1COc1cnc(-c2nnc3n2CCCC3)cn1 [Compound 32, 3-(4-fluorophenyl)-5-methyl-4-(((5-(5,6,7,8-tetrahydro-[1,2,4]triazolo[4,3-a]pyridin-3-yl)pyrazin-2-yl)oxy)methyl)isoxazole] | – | 83% (4 hours) | 4.93 | 35 |
| Cc1onc(-c2ccc(F)cc2)c1COc1ccc(N2CCn3ccnc3C2)nn1 [Compound 35, 4-(((6-(5,6-dihydroimidazo [1,2-a]pyrazin-7(8H)-yl)pyridazin-3-yl)oxy)methyl)-3-(4-fluorophenyl)-5-methylisoxazole] | 35.8 | – | 1.44 | 49 |
| Cc1onc(-c2ccc(F)cc2)c1COc1cnc(N2CCn3c(C)nnc3C2)cn1 [Compound 27] | – | 63% (4 hours) | 3.9 | 39 |
| Cc1onc(-c2ccc(F)cc2)c1COc1cnc(-c2nnc3n2CCN(C)C3)cn1 [Compound 16] | – | 76% (4 hours) | 6.93 | 15 |
| Cc1onc(-c2ccc(F)cc2)c1COc1cnc(-c2nnn3c2COCC3)cn1 [Compound 12, 3-(5-((3-(4-fluorophenyl)-5-methylisoxazol-4-yl)methoxy)pyrazin-2-yl)-6,7-dihydro-4H-[1,2,3]triazolo[5,1-c][1,4]oxazine] | – | 93% (4 hours) | 2.6 | 24 |

The remaining lines, values ahead:

| Selectivity α2 ki/α5 ki [1] [folds] | Residual content in simulated gastric juice after 4 hours (compared with 0 hour content) [2] | Ki [3] [nM] | inhibition at 0.1 µM (α5-GABAA receptor) [%] | SMILES |
| --- | --- | --- | --- | --- |
| 14.5 | – | – | – | COc1ncc(-c2ccc(OCc3c(C)nnn3-c3ccc(C(F)F)cc3)nn2)cn1 [WO2020016443A1, Example 3, reference compound] |
| – | 82% (4 hours) | 8.63 | 49 | Cc1onc(-c2ccc(F)cc2)c1COc1ccc(-n2nnc3c2CCOC3)cn1 [Compound 50, 1-(6-((3-(4-fluorophenyl)-5-methylisoxazol-4-yl)methoxy)pyridin-3-yl)-1,4,6,7-tetrahydropyran[3,4-d][1,2,3]triazole] |
| – | 87% (4 hours) | 3.09 | 21 | Cc1cn2c(n1)CN(c1cnc(OCc3c(-c4ccc(F)cc4)noc3C)cn1)CC2 [Compound 46, 3-(4-fluorophenyl)-5-methyl-4-(((5-(2-methyl-5,6-dihydroimidazo [1,2-a]pyrazin-7(8H)-yl)pyrazin-2-yl)oxy)methyl)isoxazole] |
| 7.67 | – | – | – | Cc1nnn(-c2ccc(C(F)F)cc2)c1COc1ccc(-n2cnc(C(F)F)c2)nn1 [WO2020016443A1, Example 15, reference compound] |
| – | 88% (4 hours) | 68.5 | 25 | Cc1onc(-c2ccc(F)cc2)c1COc1cnc(N2CCn3ccnc3C2)cn1 [Compound 48, 4-(((5-(5,6-dihydroimidazo [1,2-a]pyrazin-7(8H)-yl)pyrazin-2-yl)oxy)methyl)-3-(4-fluorophenyl)-5-methylisoxazole] |
| 13.2 | – | – | – | Cc1ncc(-c2ccc(OCc3c(C)nnn3-c3ccc(C(F)F)cc3)nn2)o1 [WO2020016443A1, Example 6, reference compound] |
